Data taken from US10487058B2, “Cyclopropyl unsaturated quinoline compound used as leukotriene receptor antagonist and applications thereof” (Guangdong Moltech Pharma Co. Ltd, priority 2015, dated 2019).

Columns and labels:
[1] = test system: guinea pig asthma models; assay: Anti-asthmatic effect of CS-0090-1 on guinea pig asthma models (histamine/acetylcholine atomization); type: in vivo
[2] = test system: histamine and acetylcholine induced asthma guinea pigs; assay: Anti-asthmatic effect of CS-0090-2 on histamine and acetylcholine induced asthma guinea pigs; type: in vivo, guinea pig
[3] = test system: histamine and acetylcholine induced asthma guinea pigs; assay: Anti-asthmatic effect of CS-0090-4 on histamine and acetylcholine induced asthma guinea pigs; type: in vivo, guinea pig
Protocol: 0.2 g choline and 0.01 g histamine were weighed and put into beakers respectively, and then respectively each beaker were added with 10 ml distilled water and blended to homogeneity.
The healthy guinea pigs with body weight of 180 to 220 g were taken and placed in a closed glass bell jar one by one firstly; after the guinea pigs became quiet, an atomization apparatus was started to spray an asthma-induced medical liquid (a solution of 2% acetylcholine chloride and 0.1% histamine phosphate mixed in equal volume) until the guinea pigs tumbled, then the pulverization was stopped, and the asthma latent period (time period from the beginning of pulverization to onset of asthma and dyspnea, till convulsions and tumble) was observed, and qualified animals having a asthma latent period ≤120 s were screened.
The qualified guinea pigs screened were randomly divided into four groups, which were a high-dosage group, a median-dosage group, a low-dosage group, and a positive control group. The guinea pigs in each group were subjected to oral gavage administration continuously for 7 days with a dosage of 1 ml/100 g. The induced asthma latent period was determined in 1 h after administration on the last day.

[4] = test system: KM mice; conditions: oral gavage three times in one day, observed 7 days
[5] = 3 mg·kg^−1 group, self-control baseline

Compound: CC(C)(O)c1ccccc1CC[C@@H](SCC1(CC(=O)O)CC1)c1cccc(/C=C/c2ccc3ccc(Cl)cc3n2)c1 [Montelukast]
- Induced asthma latent period before administration [1, 5]: 48.17 ± 4.62 s
- Induced asthma latent period after administration ([1]; 3 mg·kg^−1 oral gavage once a day for 7 days, 1 h after last dose, capped at 6 min): 63.00 ± 7.13 s
- Induced asthma latent period (s) within 6 min Before administration [2, 5]: 48.2 ± 4.6 s
- Induced asthma latent period (s) within 6 min After administration ([2]; 3 mg·kg^−1 oral gavage 7 days, 1 h after last dose, capped at 360 s): 59.8 ± 7.1 s
- Asthma latent period before administration [3, 5]: 48.17 ± 4.62
- Asthma latent period after administration ([3]; 3 mg·kg^−1 oral gavage 7 days, 1 h after last dose): 59.83 ± 7.08
- maximum dosage [4]: 2280 mg/kg
